In patent US20220016035A1, “Extended Release Highly Loaded Drug Compositions” (Lubrizol Advanced Materials, Inc., priority 2017, published 2022):

Legend:
[1] = Forced degradation testing of Levetiracetam tablets and powder blends, 12 days, impurities by HPLC; format: physicochemical; details: Levetiracetam examples, forced degradation conditions
Protocol: 1.4 g of anhydrous di basic sodium phosphate in 1 liter of water. Adjusted to pH 3.5 with Orth phosphoric acid. Filter buffer with 0.45 um Nylon membrane filter paper. A mixture of 95 volumes of buffer solution and 5 volumes of Acetonitrile. To each 1 Liter of the mixture, add 1 g of sodium 1-hexanesulfonate monohydrate. […] Cool and make up to the volume with water. (Standard Stock Solution 2500 ppm). Next, Dilute 5 mL of standard solution a to 50 mL with water (Standard Solution (a) 250 ppm), further Dilute 5 mL of standard solution (a) to 100 mL with water (Standard Solution 12.5 ppm). […] Cool to room temperature and add 25 mL of acetonitrile to volumetric flask and make up the volume with water and centrifuge for 15 min @ 3500 RPM. filter the solution with 0.45 μm PVDF Millipore membrane syringe filter by discarding first 5 mL of filtrate. Dilute 5 mL of filtrate to 10 mL with water (2500 ppm). This group of examples is subjected to forced degradation testing conditions, where each example is formed into a tablet and then stored at 60 to 80 degrees C. and 75% relative humidity for a period of 5 or 12 days. At the end of the 5 days or 12 days each tablet is tested for its pH level and percent impurities. […]

[2] = Forced degradation testing of Levetiracetam blends (Table 8), Levetiracetam acid and total impurities by HPLC; format: physicochemical; details: blend, 12 Day exposure, 60 C./75% RH

| Structure (SMILES) | WT % IMPURITY [1] | Levetiracetam Acid [2] |
| --- | --- | --- |
| CC[C@@H](C(N)=O)N1CCCC1=O [EX 31, Levetiracetam] | 0.02 WT % | – |
| CC[C@@H](C(N)=O)N1CCCC1=O [EX 34, Levetiracetam] | – | 0.01 |
